Here are results for six compounds from patent publication US20240409585A1, “MACROCYCLIC IMMUNOMODULATORS” (priority 2021, published 2024).

Bridge positions count the residues as written; N and C are the ends. Square brackets hold non-standard residues; d marks the D form. Peptide text beside a SMILES is read from it. * marks the point of attachment. ξ: configuration not given here. Tyr(3-NO2) = N[C@@H](Cc1ccc(O)c([N+](=O)[O-])c1)C(=O)O; Phe(4-COOH) = N[C@@H](Cc1ccc(C(=O)O)cc1)C(=O)O; Trp(2-Me) = Cc1[nH]c2ccccc2c1C[C@H](N)C(=O)O; Bip = N[C@@H](Cc1ccc(-c2ccccc2)cc1)C(=O)O; Phe(3-Me) = Cc1cccc(C[C@H](N)C(=O)O)c1; 3Pal = N[C@@H](Cc1cccnc1)C(=O)O; 4Pal = N[C@@H](Cc1ccncc1)C(=O)O; Cha = N[C@@H](CC1CCCCC1)C(=O)O; Cit = NC(=O)NCCC[C@H](N)C(=O)O; Ile(3ξ) = CCC(C)[C@H](N)C(=O)O; Thr(3ξ) = CC(O)[C@H](N)C(=O)O; Carboxymethyl = O=C(O)C*; NMeA = CN[C@@H](C)C(=O)O; Dab = NCC[C@H](N)C(=O)O; Dap = NC[C@H](N)C(=O)O; ξC = NC(CS)C(=O)O; Acm = CC(=O)NC*

The experiment deals with T1, PE-labeled human PD-L1-Ig binding to Jurkat cell line over-expressing human PD-1 (Jurkat-PD-1) (Homo sapiens, UniProt Q15116).
T1 construct: expressed in transfected cells; host or cells: Jurkat
T1 sequence (Q15116 25-288): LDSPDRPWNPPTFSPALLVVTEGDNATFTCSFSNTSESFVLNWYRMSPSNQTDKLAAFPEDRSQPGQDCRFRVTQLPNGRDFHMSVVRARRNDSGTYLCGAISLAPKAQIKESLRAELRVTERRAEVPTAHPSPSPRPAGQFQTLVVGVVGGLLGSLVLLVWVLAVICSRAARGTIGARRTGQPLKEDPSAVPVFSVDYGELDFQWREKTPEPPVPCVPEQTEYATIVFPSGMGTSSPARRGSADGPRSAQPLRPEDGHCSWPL
Nature of the experiment: Jurkat-PD-1 Cell Binding High-Content Screening Assay (CBA): Method 1. Particulars: Jurkat-hPD-1 cells, PE-labeled PD-L1-Ig 20 nM final; read-out: Jurkat HPDL1 PD1 IC50 (uM) (Method 1).
As a reminder, the IC50 is the concentration needed to halve the response being measured. For the compound `CCC(C)[C@@H]1NC(=O)[C@H](Cc2ccc(-c3ccccc3)cc2)NC(=O)[C@H](C(C)C)NC(=O)[C@H](Cc2c[nH]c3ccccc23)NC(=O)[C@H](CC(=O)O)NC(=O)[C@H](Cc2ccc(O)cc2)NC(=O)[C@H](Cc2cccnc2)NC(=O)CSC[C@@H](C(=O)N[C@@H](C)C(N)=O)NC(=O)[C@H](C(C)O)NC(=O)[C@H](C(C)C)NC(=O)[C@H](CC2CCCCC2)NC(=O)[C@H](CCN)NC(=O)[C@@H](CC(C)C)NC(=O)[C@H](C)N(C)C1=O` (stereo partly drawn) [Compound 2052] ({CH2CO}-[3Pal]YDWV[Bip][Ile(3ξ)][NMeA][dL][Dab][Cha]V[Thr(3ξ)]CA-NH2; thioether N-14), the IC50 is 0.02 µM. For `CC(C)C[C@@H]1NC(=O)[C@H](CCN)NC(=O)[C@@H](CC(C)C)NC(=O)[C@H](C)N(C)C(=O)[C@H](CCCNC(=N)N)NC(=O)[C@H](Cc2ccc(-c3ccccc3)cc2)NC(=O)[C@H](C(C)C)NC(=O)[C@H](Cc2c[nH]c3ccccc23)NC(=O)[C@H](CC(=O)O)NC(=O)[C@H](Cc2ccc(C(=O)O)cc2)NC(=O)[C@H](CN)NC(=O)CSC[C@@H](C(=O)N[C@@H](C)C(N)=O)NC(=O)[C@H]([C@@H](C)O)NC(=O)[C@H](C(C)C)NC1=O` [Compound 1451] ({CH2CO}-[Dap][Phe(4-COOH)]DWV[Bip]R[NMeA][dL][Dab]LVTCA-NH2; thioether N-14), the IC50 was determined as 0.08 µM. The figure for `CC(C)C[C@@H]1NC(=O)[C@H](CCN)NC(=O)[C@@H](CC(C)C)NC(=O)[C@H](C)N(C)C(=O)[C@H](CCCNC(N)=O)NC(=O)[C@H](Cc2ccc(-c3ccccc3)cc2)NC(=O)[C@H](C(C)C)NC(=O)[C@H](Cc2c[nH]c3ccccc23)NC(=O)[C@H](CC(=O)O)NC(=O)[C@H](Cc2ccc(O)c([N+](=O)[O-])c2)NC(=O)[C@H](Cc2cccnc2)NC(=O)CSC[C@@H](C(=O)N[C@@H](C)C(N)=O)NC(=O)[C@H]([C@@H](C)O)NC(=O)[C@H](C(C)C)NC1=O` [Compound 1338] ({CH2CO}-[3Pal][Tyr(3-NO2)]DWV[Bip][Cit][NMeA][dL][Dab]LVTCA-NH2; thioether N-14) is 0.01 µM; for `CC(=O)NCSC[C@@H]1NC(=O)[C@H](CC(C)C)NC(=O)[C@H](CC(N)=O)NC(=O)[C@@H](CC(C)C)NC(=O)[C@H](C)N(C)C(=O)[C@H](C(C)C)NC(=O)[C@H](Cc2ccc(-c3ccccc3)cc2)NC(=O)[C@H](CSCNC(C)=O)NC(=O)[C@H](Cc2cccc(C)c2)NC(=O)[C@H](CC(=O)O)NC(=O)[C@H](Cc2ccncc2)NC(=O)[C@H](Cc2ccc(OCC(=O)O)cc2)NC(=O)CSCC(C(=O)NCC(N)=O)NC(=O)[C@H](CO)NC1=O` (stereo partly drawn) [Compound 1887] ({CH2CO}-Y(Carboxymethyl)[4Pal]D[Phe(3-Me)]C(Acm)[Bip]V[NMeA][dL]NLC(Acm)S[ξC]G-NH2; thioether N-14) it is 0.25 µM; for `Cc1[nH]c2ccccc2c1C[C@@H]1NC(=O)[C@H](CC(=O)O)NC(=O)[C@H](Cc2ccc(O)cc2)NC(=O)[C@H](Cc2ccccc2)NC(=O)CSC[C@@H](C(=O)N[C@@H](C)C(N)=O)NC(=O)[C@H]([C@@H](C)O)NC(=O)[C@H](C(C)C)NC(=O)[C@H](CC(C)C)NC(=O)[C@H](CCN)NC(=O)[C@@H](CC(C)C)NC(=O)[C@H](C)N(C)C(=O)[C@H](CCCNC(=N)N)NC(=O)[C@H](Cc2ccc(-c3ccccc3)cc2)NC(=O)[C@H](C(C)C)NC1=O` [Compound 1202] ({CH2CO}-FYD[Trp(2-Me)]V[Bip]R[NMeA][dL][Dab]LVTCA-NH2; thioether N-14) it is 0.73 µM. To `CC(C)C[C@@H]1NC(=O)[C@H](CCC(=O)O)NC(=O)[C@@H](CC(C)C)NC(=O)[C@H](C)N(C)C(=O)[C@H](CCCCN)NC(=O)[C@H](Cc2ccc(-c3ccccc3)cc2)NC(=O)[C@H](C(C)C)NC(=O)[C@H](Cc2c[nH]c3ccccc23)NC(=O)[C@H](CC(=O)O)NC(=O)[C@H](Cc2ccc(O)cc2)NC(=O)[C@H](Cc2ccncc2)NC(=O)CSC[C@@H](C(=O)N[C@@H](C)C(N)=O)NC(=O)[C@H](C(C)O)NC(=O)[C@H](C(C)C)NC1=O` (stereo partly drawn) [Compound 2058] ({CH2CO}-[4Pal]YDWV[Bip]K[NMeA][dL]ELV[Thr(3ξ)]CA-NH2; thioether N-14) belongs 0.04 µM.
